Measured values published in patent publication US12714696B2, “Low dose fluralaner compositions for protection against parasitic invertebrate pest” (VIRBAC, priority 2019, dated 2026).
Read-outs that look alike come from different tables or passages of the source.

Assay: Pharmacokinetics after repeated oral administration of 250 μg/kg and 35 μg/kg of fluralaner in dogs after feeding
Format: in vivo, beagle dogs
Conditions: for concentration at 168 h / concentration at 192 h / concentration at 216 h / concentration at 240 h / concentration at 384 h / concentration at 528 h / concentration at 624 h / concentration at 720 h / half-life / Cmax: beagle, dog, plasma, po
Experimental: The first objective is to obtain the pharmacokinetic parameters after repeated oral administration of […] and 35 μg/kg of fluralaner in dogs after feeding.
The second objective is to investigate the pharmacodynamics between the fluralaner plasmatic dose and the effectiveness against ticks. • IVP: Investigational Veterinary Product, is pure Fluralaner+DMSO (250 μg/kg on Days 0 to 3 (0.25 mL/kg), then 35 μg/kg on Days 4 to 9 (0.35 mL/kg), then 600 μg/kg on Day 11) • Control product is DMSO (0.25 mL/kg on Days 0 to 3, then 0.35 mL/kg on Days 4 to 9)
On Days 0, 1, 2 and 3, all dogs assigned to group 2 received the Investigational Veterinary Product. On Days 0 to 3 all dogs in group 1 received the control product at a volume equal to the dogs in group 2. Dogs assigned to group 1 received the control product and served as Placebo controls. The quantity of Investigational Veterinary Product and control product administered was calculated according to the dog's individual body weight measured on Day −1. […]
On days of administration of pre-Investigational Veterinary Product or Control Product, dogs were fed (the same dog food) approximately half of their normal daily ration 30 minutes to 35 minutes prior to administration. Food consumed by the time of administration was calculated and recorded. The remainder of their normal daily ration was fed immediately after administration.
The PK parameters of fluralaner were calculated using a non-compartmental approach.
The following rules were applied for the calculation of the PK parameters: • All the plasma concentrations, validated by the bioanalytical laboratory, were used for the PK analysis. • The actual blood sampling times were used throughout. • Concentrations below the Limit of Quantification (LOQ) value were considered as zero from time zero (pre-dose) up to the time at which the first quantifiable concentration above the LOQ value was observed. Concentrations below the LOQ value between two quantifiable concentrations were considered as missing. Trailing concentrations below the LOQ value were not used in calculations.
Cmax the observed maximum concentration in plasma measured after dosing.
λz the terminal rate constant (λz) was estimated by log-linear regression analysis on data points visually assessed, to be on the terminal log-linear phase. For the slope of the terminal elimination phase to be accepted as reliable, the following criteria were used: • the terminal data points were apparently randomly distributed about a single straight line (on visual inspection), • a minimum of three data points, including the last measured data point and excluding Cmax, were available for the regression.
t1/2 the terminal plasma half-life (t1/2) was calculated according to the following equation: […]

[1] = oral 250 μg/kg Days 0-3, 35 μg/kg Days 4-9, 600 μg/kg Day 11, dogs, read-out: fluralaner concentration levels, individual animal
[2] = oral 250/35/600 μg/kg regimen, dogs, n=6, read-out: fluralaner concentration levels, GeoMean
[3] = oral 250/35/600 μg/kg regimen, dogs, n=6, read-out: fluralaner concentration levels, Maximum
[4] = oral 250/35/600 μg/kg regimen, dogs, n=6, read-out: fluralaner concentration levels, Mean
[5] = oral 250/35/600 μg/kg regimen, dogs, n=6, read-out: fluralaner concentration levels, Median
[6] = oral 250/35/600 μg/kg regimen, dogs, n=6, read-out: fluralaner concentration levels, Minimum

Which results are given for `Cc1cc(C2=NOC(c3cc(Cl)cc(Cl)c3)(C(F)(F)F)C2)ccc1C(=O)NCC(=O)NCC(F)(F)F` (stereo not drawn) [fluralaner, Fluralaner]?
concentration at 168 h [1]: 491 ng/mL; concentration at 168 h [2]: 517 ng/mL; concentration at 168 h [3]: 580 ng/mL; concentration at 168 h [4]: 518 ng/mL; concentration at 168 h [5]: 520 ng/mL; concentration at 168 h [6]: 461 ng/mL; concentration at 192 h [1]: 542 ng/mL; concentration at 192 h [2]: 508 ng/mL; concentration at 192 h [3]: 558 ng/mL; concentration at 192 h [4]: 509 ng/mL; concentration at 192 h [5]: 520 ng/mL; concentration at 192 h [6]: 455 ng/mL; concentration at 216 h [1]: 477 ng/mL; concentration at 216 h [2]: 515 ng/mL; concentration at 216 h [3]: 650 ng/mL; concentration at 216 h [4]: 518 ng/mL; concentration at 216 h [5]: 485 ng/mL; concentration at 216 h [6]: 468 ng/mL; concentration at 240 h [1]: 386 ng/mL; concentration at 240 h [2]: 469 ng/mL; concentration at 240 h [3]: 724 ng/mL; concentration at 240 h [4]: 483 ng/mL; concentration at 240 h [5]: 422 ng/mL; concentration at 240 h [6]: 368 ng/mL; concentration at 384 h [1]: 561 ng/mL; concentration at 384 h [2]: 693 ng/mL; concentration at 384 h [3]: 1000 ng/mL; concentration at 384 h [4]: 714 ng/mL; concentration at 384 h [5]: 654 ng/mL; concentration at 384 h [6]: 523 ng/mL; concentration at 528 h [2]: 327 ng/mL; concentration at 528 h [3]: 517 ng/mL; concentration at 528 h [4]: 339 ng/mL; concentration at 528 h [5]: 320 ng/mL; concentration at 528 h [6]: 235 ng/mL; concentration at 624 h [2]: 254 ng/mL; concentration at 624 h [3]: 403 ng/mL; concentration at 624 h [4]: 263 ng/mL; concentration at 624 h [5]: 244 ng/mL; concentration at 624 h [6]: 182 ng/mL; concentration at 720 h [1]: 300 ng/mL; concentration at 720 h [2]: 262 ng/mL; concentration at 720 h [3]: 300 ng/mL; concentration at 720 h [4]: 265 ng/mL; concentration at 720 h [5]: 280 ng/mL; concentration at 720 h [6]: 187 ng/mL; half-life (oral 250 μg/kg Days 0-3, 35 μg/kg Days 4-9, 600 μg/kg Day 11, dogs, read-out: mean terminal half-life (converted)): 15.5 days; Cmax (oral 250/35/600 μg/kg regimen, dogs, read-out: Cmax, range): 561 to 1000 ng/mL; Cmax (oral 250/35/600 μg/kg regimen, dogs, read-out: mean Cmax): 733 ng/mL; half-life (oral 250/35/600 μg/kg regimen, dogs, read-out: terminal half-life, range): 9.47 to 20.6 days; steady state concentrations (with the 35 μg/kg per day dose application from Day 4 to Day 9): reached
